Compared with `Clc1ccccc1C(Cl)c1ccc(-c2ccccc2)cc1` (stereo not given), `O=C(Nc1ccc(Cl)cc1)Oc1ccc2c(c1)N(Cc1ccccc1)CCC2` is higher in melting point: 80 °C for the first, 120 °C for the second.

First: C#Cc1ccnc(-c2cc(N)c(C#Cc3ccc(C(C)=S)cc3)cc2[N+](=O)[O-])c1
Second: O=[N+]([O-])c1cc(-c2ccoc2)ccc1Nc1cccc(-n2cccc2)c1
The melting point of the first is higher: 185 to 188 °C for the first, 129 to 131 °C for the second.

First: Brc1ccc(Oc2ccc(-n3ccnc3)nn2)cc1
Second: COc1ccc(Oc2ccc3ccc(NC(=O)c4ccccc4)nc3n2)cc1
The melting point of the first is lower: 168 °C for the first, 171 °C for the second.

Compared with `c1ccc(CCc2ccc[nH]2)cc1`, `Cn1ccc2c(NC(=O)c3ccccc3)cccc21` is higher in melting point: 40 to 42 °C for the first, 160 °C for the second.

First: COc1ccc(-c2ccc3cnc(Nc4ccc5c(c4)N(S(C)(=O)=O)CCC5)nn23)cn1
Second: CS(=O)(=O)Nc1cccc(Nc2nc(NCc3ccccc3CO)c3nc[nH]c3n2)c1
The melting point of the first is higher: 202 to 203 °C for the first, 145 to 148 °C for the second.

First: CCn1c(C)c(C(=O)c2ccccc2C(=O)O)c2ccccc21
Second: Cc1ccccc1C=CC(=O)c1c(C)n(CCN2CCOCC2)c2ccccc12
The melting point of the first is higher: 184 to 185 °C for the first, 131 to 135 °C for the second.

Compared with `O=C1c2cc(Cl)c(Cl)cc2-c2cc(O)cc3cccc1c23`, `O=C(Nc1ccccc1-c1ccc(Cl)cc1F)c1cccnc1Cl` is lower in melting point: 355 to 360 °C for the first, 124 to 126 °C for the second.

Compared with `COC(=O)[C@]1(C)Cc2c([nH]c3ccc(Br)cc23)[C@@H](c2cccc(O)c2)N1` (racemic), `CO[C@@H]1CN(CCCOc2ccc(F)cc2)CC[C@@H]1NC(=O)c1cc(Cl)c(N)cc1O` (relative stereo) is lower in melting point: 240 to 241 °C for the first, 146 to 148 °C for the second.

First: CC[C@H](NS(=O)(=O)c1ccc(OC)cc1)C(=O)OC
Second: CCCCCC#CCC(CC#CCCCCC)(C(=O)NO)S(=O)(=O)c1ccc(OC)cc1
The melting point of the first is lower: 64 °C for the first, 83 to 84 °C for the second.

Compared with `COc1cccc(NC(=O)N2CCc3cc(S(=O)(=O)N4CCN(c5cccc(Cl)c5)CC4)ccc32)c1`, `CCCCc1ccc(N2CCN(C(=O)Nc3nc4ccccc4nc3OC)CC2)cc1` is lower in melting point: 199 to 200 °C for the first, 124 to 126 °C for the second.

Compared with `CCOC(=O)c1ccc(Cn2cnc3cnccc32)cc1`, `CCOC(=O)Cc1nc(-c2ccc(Cl)cc2)sc1Sc1ccccc1` is lower in melting point: 156 to 157 °C for the first, 71 to 73 °C for the second.

First: O=[N+]([O-])c1ccc(Nc2c(F)c(F)nc(F)c2F)c(C(F)(F)F)c1
Second: O=C(O)c1cc(F)c(F)c(C(F)(F)F)c1F
The melting point of the first is higher: 104 to 105 °C for the first, 87 to 90 °C for the second.

First: COc1ccc(-c2c3c(cc4ccc5c(c24)OCO5)C(=O)OC3)cc1
Second: CCCOc1ccc(C(CC(N)=O)N2C(=O)c3ccccc3C2=O)cc1 (stereo not given)
The melting point of the first is higher: 217 to 219 °C for the first, 110 °C for the second.

First: CN(C)CCOc1ccc2[nH]c(C(=O)N3CC(CCl)c4c3cc([N+](=O)[O-])c3cc(S(=O)(=O)NCCO)ccc43)cc2c1 (stereo not given)
Second: CCCCc1nc2c(N)nc3ccccc3c2n1CCCCNS(=O)(=O)c1cccc2c(N(C)C)cccc12
The melting point of the first is lower: 205 to 210 °C for the first, 223 to 224 °C for the second.

Compared with `CC1=C(C(=O)OC(C)C)C(c2ccccc2F)n2nncc2N1` (stereo not given), `CCOC(=O)c1c(C)cc2cnc(-c3ccccc3F)nc2c1C` is lower in melting point: 137 to 139 °C for the first, 98 to 100 °C for the second.

Compared with `COc1c(C2CCN(CCCCOc3ccc(-c4ccc(C#N)cc4)cc3)CC2)ccc2ccccc12`, `CCCCc1nc2cccc(CO)c2n1Cc1ccc(-c2ccccc2C#N)cc1` is higher in melting point: 142 °C for the first, 203 to 204 °C for the second.

Compared with `CSc1nc(P(=O)(c2ccccc2)c2ccccc2)cc(P(=O)(c2ccccc2)c2ccccc2)n1`, `COc1ccc(C(=O)NNc2ccc(NC(=S)Nc3ccccc3)cc2)cc1` is lower in melting point: 221 to 222 °C for the first, 178 °C for the second.

Compared with `O=C(NCCO[N+](=O)[O-])c1ccc(C2NC(C(=O)O)CS2)cc1` (stereo not given), `CC(=O)N[C@@H](CO)C(=O)NCc1ccc(N)cc1` is higher in melting point: 128 to 130 °C for the first, 158 to 160 °C for the second.

First: COCC(C)N(C)Cc1c(-c2ccc(NC(=O)NOC)cc2)sc2c1c(=O)n(-c1ccccc1)c(=O)n2Cc1c(F)cccc1F (stereo not given)
Second: CCC(C(=O)c1ccc(Cl)cc1)n1ncn(-c2ccc(N3CCN(C(=O)Cc4ccccc4)CC3)cc2)c1=O (stereo not given)
The melting point of the first is lower: 154 to 155 °C for the first, 172 °C for the second.

Compared with `c1cncc(-c2nccs2)c1`, `OC1c2cc(OCc3ccccn3)ccc2OCC1Cc1cccnc1` (stereo not given) is higher in melting point: 44 to 45 °C for the first, 108 to 110 °C for the second.

First: Cc1ccc(C(=O)N(C(C)C)C(C)C)c(F)c1C1=NC(C)(C(C)C)C(=O)N1 (stereo not given)
Second: Cc1nonc1-n1cc(C(=O)O)c(=O)c2c(C)c(F)c(F)cc21
The melting point of the first is higher: 205 to 210 °C for the first, 200 to 202 °C for the second.

First: Cc1nc2c3c(c(C(N)=O)cc2n1C)CCC(c1ccccc1)O3 (stereo not given)
Second: CC(C)(C)c1ccc2c(c1)C(C(=O)O)c1ccccc1CO2 (stereo not given)
The melting point of the first is higher: 264 to 267 °C for the first, 197 to 198 °C for the second.

Compared with `CCCCc1nnc2ccccc2c1Cl`, `CCCc1nc2c(N)nc3ccccc3c2n1CC(C)C` is higher in melting point: 50 °C for the first, 191 to 192 °C for the second.

First: CCCn1nc(C(N)=O)cc1CC(C)C
Second: CCC=C(CCC)C(=O)O
The melting point of the first is higher: 141 to 142 °C for the first, 38 °C for the second.

Compared with `C=Cc1c(F)c(N2CC3CN(C)CC3C2)c(F)c2c1c(=O)c(C(=O)O)cn2C1CC1` (stereo not given), `Nc1c(F)c(N2CC(n3cncn3)C2)c(F)c2c1c(=O)c(C(=O)O)cn2C1CC1` is higher in melting point: 156 to 157 °C for the first, 293 to 295 °C for the second.

First: COC(=O)c1cccc2[nH]cc(CC[N+](=O)[O-])c12
Second: COC(=O)c1[nH]cc(Cc2ccsc2)c1N
The melting point of the first is lower: 103 °C for the first, 108 to 110 °C for the second.

Compared with `COC(=O)c1cc(C(=O)NC(C)C(=O)OC)c2ccc(Cc3ccc(F)cc3)nc2c1O` (stereo not given), `COc1cc(CCC(=O)CC(=O)CCc2ccc(O)c(OC)c2)ccc1O` is lower in melting point: 157 to 158 °C for the first, 92 to 94 °C for the second.

First: O=c1ccc(Cl)cn1[C@@H]1c2ccccc2OCC[C@H]1O (relative stereo)
Second: N#Cc1cnc2ccccc2c1Nc1ccc(Cl)cc1Cl
The melting point of the first is lower: 176 to 178 °C for the first, 260 to 262 °C for the second.

First: COc1ccc(C=CC(=O)c2c(OC)cc(OC)cc2OC(=O)c2ccccc2)cc1
Second: CCOC(=O)C=Cc1ccc(OCc2csc(-c3ccccc3)n2)c(OC)c1
The melting point of the first is higher: 134 °C for the first, 92 to 93 °C for the second.

First: Cc1ccc(S(=O)(=O)Nc2ccccc2)cc1
Second: COc1ccccc1CNc1nccc2ccccc12
The melting point of the first is lower: 96 to 98 °C for the first, 111 to 113 °C for the second.

First: COC(=O)c1cc(C)cc(CC#N)c1
Second: COc1cccc(CN2CCCCc3cc(CN(O)C(N)=O)ccc32)c1
The melting point of the first is higher: 56.2 to 57.8 °C for the first, 38 to 42 °C for the second.

First: Cc1ccc(Oc2ccc(C(=O)N=C(N)N)cc2S(C)(=O)=O)cn1
Second: Cc1c(CO)ncn1CCCNC(C)(C)c1ccc(Cl)cc1
The melting point of the first is higher: 197 to 199 °C for the first, 97 to 99 °C for the second.

First: CC[C@H]1CN(c2c(F)cc3c(=O)c(C(=O)O)cn([C@@H]4C[C@@H]4F)c3c2OC)C[C@H]1N
Second: CC1Cc2c(Cl)ccc3c(=O)c(C(=O)O)cn1c23 (stereo not given)
The melting point of the first is lower: 217 to 219 °C for the first, 288 to 290 °C for the second.

First: Oc1ccc(-c2csc(S)n2)cc1O
Second: Cc1cc2c(=O)n3cc(C#N)ccc3nc2s1
The melting point of the first is lower: 236 °C for the first, 256 to 258 °C for the second.

First: Cc1cc(C=CC(=O)O)c(Cl)nc1C
Second: Cc1csc(C)c1C(=O)O
The melting point of the first is lower: 150 to 158 °C for the first, 164 to 165 °C for the second.

First: CCN1c2cc(N)ccc2N(C)C(=O)c2cccnc21
Second: CCN(CC)c1ccc(F)c2nc3n(c12)CCCN3c1ccc(Cl)cc1Cl
The melting point of the first is higher: 193 to 195 °C for the first, 170 to 172 °C for the second.

Compared with `O=C1NC(=O)C2(N1)C(=O)N(Cc1ccc(Cl)c(Cl)c1)c1ccc([N+](=O)[O-])cc12` (stereo not given), `CCCN(C(=O)CBr)c1ccc([N+](=O)[O-])cc1C(=O)c1ccccc1` is lower in melting point: 245 to 246 °C for the first, 122 °C for the second.

Compared with `CN1CCN(CCCNc2ncc3cc(-c4c(Cl)cccc4Cl)c(NC(=O)Nc4cccc5ccccc45)nc3n2)CC1`, `Cc1c(C#N)sc2nc(-c3ccccc3)nc(N3CCN(C)CC3)c12` is higher in melting point: 186 to 189 °C for the first, 223 to 225 °C for the second.

First: CCC1c2cccn2-c2ccc(C(F)(F)F)cc2N1S(=O)(=O)c1ccc(OC)c(Cl)c1 (stereo not given)
Second: O=S(=O)(Nc1ccc2c(OCc3ccc(-c4ccc(C(F)(F)F)cc4)cc3F)cccc2c1)C(F)(F)F
The melting point of the first is higher: 126 to 129 °C for the first, 98 to 100 °C for the second.

First: Cn1cnc(Cc2cccc3c2OC(C)(C)OC3)c1
Second: CC(C)c1n[nH]c2c(NCc3cccc(O)c3)ncnc12
The melting point of the first is lower: 67 to 72 °C for the first, 220 to 221 °C for the second.

First: O=C(Nc1nccs1)C(CC1CCCC1)c1ccc(Cl)c(Cl)c1 (stereo not given)
Second: Cc1ccc(C(=O)N[C@H]2CC[C@H](CCN3CCN(c4nccc5c4OCC5)CC3)CC2)cn1
The melting point of the first is lower: 120 to 122 °C for the first, 204 °C for the second.

First: COCCn1ccc2ccc(NC(=O)/C=C/c3ccc(C(C)(C)C)cc3)cc21
Second: CCCc1nn(C)c2c(=O)n(CCCNc3ccc(OC(C)(C)C(=O)O)cc3)c(C)nc12
The melting point of the first is higher: 133 °C for the first, 104 to 106 °C for the second.

First: CCNC(=O)[C@@H](C[C@H](O)[C@H](CC1CCCCC1)NC(=O)[C@H](Cc1cscn1)NC(=O)OC(C)(C)C)C(C)(C)O
Second: CCN1CC(NC(=O)c2ccc(OCC=C(C)CCC=C(C)C)cc2)CN1CC
The melting point of the first is higher: 189 to 191 °C for the first, 95.5 to 97 °C for the second.

Compared with `C1=NCC2=C3C(=C1)CCCC3CCC2` (stereo not given), `COc1cc2ncc(N[C@@H]3C[C@H]4CC[C@@H]3C4)nc2cc1OC` is lower in melting point: 207 to 209 °C for the first, 184 to 186 °C for the second.

First: CCCN(CCC)C1Cc2cccc3[nH]c(=S)n(c23)C1 (stereo not given)
Second: CN1CCCC1=NCCOS(=O)(=O)Oc1c[nH]c2ccccc12
The melting point of the first is lower: 150 to 151 °C for the first, 154 to 158 °C for the second.

First: Nc1ncnc2c1cnn2Cc1oc2ccc(Br)cc2c(=O)c1-c1ccccc1
Second: Cc1cc2[nH]c(=O)c3cnccc3n2n1
The melting point of the first is lower: 236 to 240 °C for the first, greater than 300 °C for the second.

First: O=P(O)(O)Cc1cccc(C(F)(F)F)c1
Second: Cn1c(C(F)(F)F)cc(=O)n(-c2c(F)cc(Cl)c3nc(N)oc23)c1=O
The melting point of the first is higher: 163 to 164 °C for the first, 144 to 150 °C for the second.

`CCCc1nc2c(C#N)ncc(C)c2[nH]1` and `C[C@@H](NC(=O)c1c[nH]c2ncc(-c3nn(C)c4cc(F)cc(F)c34)nc12)C(=O)N1CC(C#N)C1` cannot be ordered by melting point: 239 to 242 °C for the first, 235 to 265 °C for the second.

First: CC(C)NC1=NS(=O)(=O)c2cc(Br)ccc2N1
Second: CC(C)N1CC(=O)N(c2ccc(O)cc2F)C1=O
The melting point of the first is higher: greater than 220 °C for the first, 190 to 192 °C for the second.

Compared with `CSc1ccc(/C=C/C(=O)/C=C/C(=O)O)cc1`, `CCC1(O)CCC2(C)C(CCC3C4CCC(C5(C)OCCO5)C4(C)CC(=O)C32)C1` (stereo not given) is lower in melting point: 160 to 163 °C for the first, 144 °C for the second.
